{"source": "paper PMC10046369", "about": "“Low-Affinity/High-Selectivity Dopamine Transport Inhibition Sufficient to Rescue Cognitive Functions in the Aging Rat” (Biomolecules, 2023)", "test_in_all_cases": "biochemical", "design_in_all_cases": "KINOMEscan competition binding panel, per cent of control", "details_in_all_cases": "read-out: %Ctrl @ 2800nM", "key": {"FLT3(ITD,F691L)": {"target": "FLT3(ITD,F691L) (Homo sapiens, UniProt P36888, F691L/ITD)", "procedure,_shortened": "(§1)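 Values are expressed as percent of control, calculated as ((test − positive control)/(negative control − positive control)) × 100, so lower numbers mean stronger hits. Binding was measured by KINOMEscan competition assay in a 450-kinase human panel including disease mutants, using the contractor's validated protocol.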"}, "ROCK2": {"target": "ROCK2 (Homo sapiens, UniProt O75116)", "procedure,_shortened": "as §1"}, "FLT3-autoinhibited": {"target": "FLT3-autoinhibited (Homo sapiens, UniProt P36888)", "procedure,_shortened": "as §1"}, "NEK2": {"target": "NEK2 (Homo sapiens, UniProt P51955)", "procedure,_shortened": "as §1"}, "MYLK4": {"target": "MYLK4 (Homo sapiens, UniProt Q86YV6)", "sequence (Q86YV6 whole entry)": "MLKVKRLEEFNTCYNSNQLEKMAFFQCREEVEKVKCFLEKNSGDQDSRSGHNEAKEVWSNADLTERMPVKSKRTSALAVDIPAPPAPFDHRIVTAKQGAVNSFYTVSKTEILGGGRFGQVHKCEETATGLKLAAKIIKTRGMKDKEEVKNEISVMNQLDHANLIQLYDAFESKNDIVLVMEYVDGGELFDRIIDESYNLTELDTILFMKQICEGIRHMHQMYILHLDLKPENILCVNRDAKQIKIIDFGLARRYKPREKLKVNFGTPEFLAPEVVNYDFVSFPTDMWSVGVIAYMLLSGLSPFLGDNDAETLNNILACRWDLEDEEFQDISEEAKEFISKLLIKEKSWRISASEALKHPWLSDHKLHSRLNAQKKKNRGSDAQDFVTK", "procedure,_shortened": "as §1"}, "STK35": {"target": "STK35 (Homo sapiens, UniProt Q8TDR2)", "procedure,_shortened": "as §1"}, "SIK": {"target": "T1, SIK (Homo sapiens, UniProt P57059)", "T1 construct": "gene SIK1", "procedure,_shortened": "as §1"}, "DCAMKL2": {"target": "T2, DCAMKL2 (Homo sapiens, UniProt Q8N568)", "T2 construct": "gene DCLK2", "procedure,_shortened": "as §1"}, "[1]": {"target": "T3, ABL1(M351T)-phosphorylated (Homo sapiens, UniProt P00519, M351T)", "T3 construct": "phosphorylated", "procedure,_shortened": "as §1"}, "ALK(C1156Y)": {"target": "ALK(C1156Y) (Homo sapiens, UniProt Q9UM73, C1156Y)", "procedure,_shortened": "as §1"}, "TGFBR1": {"target": "TGFBR1 (Homo sapiens, UniProt P36897)", "sequence (P36897 whole entry)": "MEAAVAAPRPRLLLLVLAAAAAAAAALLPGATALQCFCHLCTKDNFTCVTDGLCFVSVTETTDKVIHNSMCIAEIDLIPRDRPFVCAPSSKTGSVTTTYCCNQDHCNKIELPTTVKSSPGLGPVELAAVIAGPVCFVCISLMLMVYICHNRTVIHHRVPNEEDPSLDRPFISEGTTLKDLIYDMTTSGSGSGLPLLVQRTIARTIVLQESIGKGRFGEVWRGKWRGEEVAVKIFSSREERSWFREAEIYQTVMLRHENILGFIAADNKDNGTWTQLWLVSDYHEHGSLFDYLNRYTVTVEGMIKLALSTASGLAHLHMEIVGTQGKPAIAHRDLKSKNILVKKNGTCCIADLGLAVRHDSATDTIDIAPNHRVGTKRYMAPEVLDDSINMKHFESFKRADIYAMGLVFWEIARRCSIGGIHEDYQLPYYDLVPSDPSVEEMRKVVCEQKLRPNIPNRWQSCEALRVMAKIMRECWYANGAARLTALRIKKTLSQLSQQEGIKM", "procedure,_shortened": "as §1"}, "TAOK2": {"target": "TAOK2 (Homo sapiens, UniProt Q9UL54)", "sequence (Q9UL54 whole entry)": "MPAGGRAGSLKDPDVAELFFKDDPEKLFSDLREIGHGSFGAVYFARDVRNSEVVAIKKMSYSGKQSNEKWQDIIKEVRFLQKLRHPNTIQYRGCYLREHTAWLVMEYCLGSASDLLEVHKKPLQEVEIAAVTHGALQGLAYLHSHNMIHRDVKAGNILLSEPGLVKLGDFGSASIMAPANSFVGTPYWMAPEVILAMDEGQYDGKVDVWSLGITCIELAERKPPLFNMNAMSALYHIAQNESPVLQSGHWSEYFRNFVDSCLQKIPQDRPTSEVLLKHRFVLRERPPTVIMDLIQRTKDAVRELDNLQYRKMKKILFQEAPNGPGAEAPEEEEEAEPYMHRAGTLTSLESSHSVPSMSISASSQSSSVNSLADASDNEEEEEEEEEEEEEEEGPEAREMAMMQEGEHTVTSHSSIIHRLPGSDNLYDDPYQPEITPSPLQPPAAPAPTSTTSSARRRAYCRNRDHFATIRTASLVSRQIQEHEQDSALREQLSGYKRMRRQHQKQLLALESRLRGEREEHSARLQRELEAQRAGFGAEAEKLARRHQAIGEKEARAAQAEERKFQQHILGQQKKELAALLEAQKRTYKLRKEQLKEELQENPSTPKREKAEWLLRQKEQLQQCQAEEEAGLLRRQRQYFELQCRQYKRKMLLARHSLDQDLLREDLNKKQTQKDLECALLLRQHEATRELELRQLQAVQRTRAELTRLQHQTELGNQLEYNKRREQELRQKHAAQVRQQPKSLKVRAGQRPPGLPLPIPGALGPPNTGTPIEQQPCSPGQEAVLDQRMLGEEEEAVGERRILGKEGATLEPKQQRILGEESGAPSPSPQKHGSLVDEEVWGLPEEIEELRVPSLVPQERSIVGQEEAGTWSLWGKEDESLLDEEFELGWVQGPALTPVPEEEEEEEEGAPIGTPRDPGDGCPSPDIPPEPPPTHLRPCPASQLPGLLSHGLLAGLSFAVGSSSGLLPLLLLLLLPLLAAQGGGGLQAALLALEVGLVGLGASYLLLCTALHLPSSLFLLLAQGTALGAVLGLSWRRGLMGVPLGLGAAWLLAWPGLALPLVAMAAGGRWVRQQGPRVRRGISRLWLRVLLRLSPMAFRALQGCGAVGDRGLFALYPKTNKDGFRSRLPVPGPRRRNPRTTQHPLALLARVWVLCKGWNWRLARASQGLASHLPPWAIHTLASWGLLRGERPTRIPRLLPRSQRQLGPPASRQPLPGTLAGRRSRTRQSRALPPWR", "procedure,_shortened": "as §1"}, "CDK4-cyclinD3": {"target": "T4, CDK4-cyclinD3 (Homo sapiens, UniProt P11802)", "T4 construct": "cyclinD3", "procedure,_shortened": "as §1"}, "BRAF": {"target": "BRAF (Homo sapiens, UniProt P15056)", "procedure,_shortened": "as §1"}, "ANKK1": {"target": "ANKK1 (Homo sapiens, UniProt Q8NFD2)", "procedure,_shortened": "as §1"}, "PIK3CA(E545K)": {"target": "PIK3CA(E545K) (Homo sapiens, UniProt P42336, E545K)", "sequence (P42336 whole entry E545K)": "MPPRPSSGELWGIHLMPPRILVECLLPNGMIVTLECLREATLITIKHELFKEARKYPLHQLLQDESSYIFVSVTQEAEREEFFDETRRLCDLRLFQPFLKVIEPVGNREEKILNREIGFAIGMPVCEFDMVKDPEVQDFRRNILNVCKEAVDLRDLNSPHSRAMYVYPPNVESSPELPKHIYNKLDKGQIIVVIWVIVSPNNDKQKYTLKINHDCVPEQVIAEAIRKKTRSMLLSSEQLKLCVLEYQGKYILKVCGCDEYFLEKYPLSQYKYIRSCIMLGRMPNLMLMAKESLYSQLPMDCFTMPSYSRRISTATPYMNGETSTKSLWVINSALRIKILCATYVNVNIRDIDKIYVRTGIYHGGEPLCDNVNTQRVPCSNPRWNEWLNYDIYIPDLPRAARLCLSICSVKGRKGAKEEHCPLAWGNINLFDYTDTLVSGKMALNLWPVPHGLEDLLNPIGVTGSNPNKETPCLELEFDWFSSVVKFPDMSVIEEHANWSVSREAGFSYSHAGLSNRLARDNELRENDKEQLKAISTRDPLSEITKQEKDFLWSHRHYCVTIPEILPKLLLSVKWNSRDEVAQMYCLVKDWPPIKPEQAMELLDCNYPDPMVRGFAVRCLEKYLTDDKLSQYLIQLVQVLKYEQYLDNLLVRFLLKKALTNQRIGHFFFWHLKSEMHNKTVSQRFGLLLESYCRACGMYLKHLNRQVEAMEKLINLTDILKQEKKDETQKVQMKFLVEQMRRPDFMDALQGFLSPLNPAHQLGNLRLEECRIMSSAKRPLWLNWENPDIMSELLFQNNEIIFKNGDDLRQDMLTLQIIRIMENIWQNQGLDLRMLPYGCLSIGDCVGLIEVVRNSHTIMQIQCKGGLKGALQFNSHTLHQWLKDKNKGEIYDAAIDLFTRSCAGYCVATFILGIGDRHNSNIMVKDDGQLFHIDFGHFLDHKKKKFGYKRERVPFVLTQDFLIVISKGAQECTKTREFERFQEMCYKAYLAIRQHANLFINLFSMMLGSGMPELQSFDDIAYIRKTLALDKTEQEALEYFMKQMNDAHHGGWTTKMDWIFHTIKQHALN", "procedure,_shortened": "as §1"}, "SGK2": {"target": "SGK2 (Homo sapiens, UniProt Q9HBY8)", "procedure,_shortened": "as §1"}, "RIOK1": {"target": "RIOK1 (Homo sapiens, UniProt Q9BRS2)", "sequence (Q9BRS2 whole entry)": "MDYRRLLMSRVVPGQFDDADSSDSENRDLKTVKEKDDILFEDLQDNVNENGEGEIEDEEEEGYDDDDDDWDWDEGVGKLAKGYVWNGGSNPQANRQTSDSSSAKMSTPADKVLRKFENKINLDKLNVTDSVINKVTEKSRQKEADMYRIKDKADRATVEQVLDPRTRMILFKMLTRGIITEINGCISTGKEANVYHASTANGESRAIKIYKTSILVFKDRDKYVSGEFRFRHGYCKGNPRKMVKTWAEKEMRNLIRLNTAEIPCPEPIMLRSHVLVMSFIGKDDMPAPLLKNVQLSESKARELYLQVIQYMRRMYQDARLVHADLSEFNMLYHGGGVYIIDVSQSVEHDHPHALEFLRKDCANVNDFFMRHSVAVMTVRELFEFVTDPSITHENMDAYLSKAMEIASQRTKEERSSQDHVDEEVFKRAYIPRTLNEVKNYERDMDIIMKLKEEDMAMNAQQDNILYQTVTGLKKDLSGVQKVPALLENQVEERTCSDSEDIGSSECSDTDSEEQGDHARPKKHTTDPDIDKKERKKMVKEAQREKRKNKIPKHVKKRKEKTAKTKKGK", "procedure,_shortened": "as §1"}, "BMPR1A": {"target": "BMPR1A (Homo sapiens, UniProt P36894)", "procedure,_shortened": "as §1"}, "LIMK2": {"target": "LIMK2 (Homo sapiens, UniProt P53671)", "procedure,_shortened": "as §1"}, "EPHB3": {"target": "EPHB3 (Homo sapiens, UniProt P54753)", "procedure,_shortened": "as §1"}, "TBK1": {"target": "TBK1 (Homo sapiens, UniProt Q9UHD2)", "procedure,_shortened": "as §1"}, "MAP3K2": {"target": "MAP3K2 (Homo sapiens, UniProt Q9Y2U5)", "procedure,_shortened": "as §1"}, "CAMK2A": {"target": "CAMK2A (Homo sapiens, UniProt Q9UQM7)", "sequence (Q9UQM7 whole entry)": "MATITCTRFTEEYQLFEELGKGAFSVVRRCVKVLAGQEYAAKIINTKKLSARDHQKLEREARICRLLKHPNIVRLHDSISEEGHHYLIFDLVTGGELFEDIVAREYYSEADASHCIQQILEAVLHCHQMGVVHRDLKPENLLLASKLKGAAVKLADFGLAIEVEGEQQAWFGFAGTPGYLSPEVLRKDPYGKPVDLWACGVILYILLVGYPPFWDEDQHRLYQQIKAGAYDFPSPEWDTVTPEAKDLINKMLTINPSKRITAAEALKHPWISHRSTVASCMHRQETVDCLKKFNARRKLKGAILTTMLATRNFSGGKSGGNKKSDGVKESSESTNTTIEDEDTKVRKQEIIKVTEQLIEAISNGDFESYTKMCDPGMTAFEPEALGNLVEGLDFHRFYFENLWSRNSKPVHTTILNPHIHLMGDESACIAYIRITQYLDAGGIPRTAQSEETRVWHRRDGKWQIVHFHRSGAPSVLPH", "procedure,_shortened": "as §1"}, "PFTAIRE2": {"target": "T5, PFTAIRE2 (Homo sapiens, UniProt Q96Q40)", "T5 construct": "gene CDK15", "procedure,_shortened": "as §1"}, "PRKG2": {"target": "PRKG2 (Homo sapiens, UniProt Q13237)", "sequence (Q13237 whole entry)": "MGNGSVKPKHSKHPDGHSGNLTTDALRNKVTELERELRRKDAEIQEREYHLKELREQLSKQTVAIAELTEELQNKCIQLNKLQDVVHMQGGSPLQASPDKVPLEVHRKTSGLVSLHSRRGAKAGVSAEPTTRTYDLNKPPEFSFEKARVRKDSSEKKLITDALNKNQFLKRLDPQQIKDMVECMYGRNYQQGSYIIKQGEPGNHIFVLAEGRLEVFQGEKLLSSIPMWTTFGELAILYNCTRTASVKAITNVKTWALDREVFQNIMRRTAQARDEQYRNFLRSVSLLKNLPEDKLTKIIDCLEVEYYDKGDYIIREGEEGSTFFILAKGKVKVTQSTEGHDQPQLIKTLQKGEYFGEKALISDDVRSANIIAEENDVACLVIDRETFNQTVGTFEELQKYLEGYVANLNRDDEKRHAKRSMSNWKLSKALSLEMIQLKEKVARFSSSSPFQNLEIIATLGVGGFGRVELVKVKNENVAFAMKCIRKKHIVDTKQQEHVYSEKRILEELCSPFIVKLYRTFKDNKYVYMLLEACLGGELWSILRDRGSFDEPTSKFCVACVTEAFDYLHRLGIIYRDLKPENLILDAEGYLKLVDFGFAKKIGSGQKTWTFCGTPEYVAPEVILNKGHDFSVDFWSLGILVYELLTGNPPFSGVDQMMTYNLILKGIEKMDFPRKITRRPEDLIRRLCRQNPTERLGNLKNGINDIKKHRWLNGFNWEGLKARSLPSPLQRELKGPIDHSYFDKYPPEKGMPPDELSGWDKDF", "procedure,_shortened": "as §1"}}}
{"smiles": "[O-][S@@+](Cc1cncs1)C(c1ccccc1)c1ccccc1", "note": "[S-CE-123, (S)-5-((Benzhydrylsulfinyl)Methyl)Thiazole]", "values": [{"measurement": "remaining binding at 2.8 µM", "setting": "FLT3(ITD,F691L)", "result": 50, "unit": "%"}, {"measurement": "remaining binding at 2.8 µM", "setting": "ROCK2", "result": 100, "unit": "%"}, {"measurement": "remaining binding at 2.8 µM", "setting": "FLT3-autoinhibited", "result": 99, "unit": "%"}, {"measurement": "remaining binding at 2.8 µM", "setting": "NEK2", "result": 96, "unit": "%"}, {"measurement": "remaining binding at 2.8 µM", "setting": "MYLK4", "result": 89, "unit": "%"}, {"measurement": "remaining binding at 2.8 µM", "setting": "STK35", "result": 98, "unit": "%"}, {"measurement": "remaining binding at 2.8 µM", "setting": "SIK", "result": 100, "unit": "%"}, {"measurement": "remaining binding at 2.8 µM", "setting": "DCAMKL2", "result": 97, "unit": "%"}, {"measurement": "remaining binding at 2.8 µM", "setting": "[1]", "result": 100, "unit": "%"}, {"measurement": "remaining binding at 2.8 µM", "setting": "ALK(C1156Y)", "result": 100, "unit": "%"}, {"measurement": "remaining binding at 2.8 µM", "setting": "TGFBR1", "result": 86, "unit": "%"}, {"measurement": "remaining binding at 2.8 µM", "setting": "TAOK2", "result": 100, "unit": "%"}, {"measurement": "remaining binding at 2.8 µM", "setting": "CDK4-cyclinD3", "result": 85, "unit": "%"}, {"measurement": "remaining binding at 2.8 µM", "setting": "BRAF", "result": 100, "unit": "%"}, {"measurement": "remaining binding at 2.8 µM", "setting": "ANKK1", "result": 100, "unit": "%"}, {"measurement": "remaining binding at 2.8 µM", "setting": "PIK3CA(E545K)", "result": 82, "unit": "%"}, {"measurement": "remaining binding at 2.8 µM", "setting": "SGK2", "result": 100, "unit": "%"}, {"measurement": "remaining binding at 2.8 µM", "setting": "RIOK1", "result": 77, "unit": "%"}, {"measurement": "remaining binding at 2.8 µM", "setting": "BMPR1A", "result": 100, "unit": "%"}, {"measurement": "remaining binding at 2.8 µM", "setting": "LIMK2", "result": 88, "unit": "%"}, {"measurement": "remaining binding at 2.8 µM", "setting": "EPHB3", "result": 100, "unit": "%"}, {"measurement": "remaining binding at 2.8 µM", "setting": "TBK1", "result": 100, "unit": "%"}, {"measurement": "remaining binding at 2.8 µM", "setting": "MAP3K2", "result": 100, "unit": "%"}, {"measurement": "remaining binding at 2.8 µM", "setting": "CAMK2A", "result": 93, "unit": "%"}, {"measurement": "remaining binding at 2.8 µM", "setting": "PFTAIRE2", "result": 100, "unit": "%"}, {"measurement": "remaining binding at 2.8 µM", "setting": "PRKG2", "result": 99, "unit": "%"}]}
